From patent US8604044B2, “Quinazoline based EGFR inhibitors containing a zinc binding moiety” (Curis, Inc., priority 2006, dated 2013)

System: HDAC
Experiment: HDAC fluorimetric assay (HDAC enzymatic activity, HeLa nuclear extract)
Format: biochemical
Conditions: HeLa nuclear extract; read-out: HDAC IC50 grading
Protocol: HDAC inhibitors were screened using an HDAC fluorimetric assay kit (AK-500, Biomol, Plymouth Meeting, Pa.).
Each assay was setup as follows: Defrosted all kit components and kept on ice until use. […] Prepared dilutions of Trichostatin A (TSA, positive control) and tested compounds in assay buffer (5× of final concentration). Diluted Fluor de Lys™ Substrate in assay buffer to 100 uM (50 fold=2× final). Diluted Fluor de Lys™ developer concentrate 20-fold (e.g. 50 μl plus 950 μl Assay Buffer) in cold assay buffer. Second, diluted the 0.2 mM Trichostatin A 100-fold in the 1× Developer (e.g. 10 μl in 1 ml; final Trichostatin A concentration in the 1× Developer=2 μM; final concentration after addition to HDAC/Substrate reaction=1 μM). Added Assay buffer, diluted trichostatin A or test inhibitor to appropriate wells of the microtiter plate. Added diluted HeLa extract or other HDAC sample to all wells except for negative controls.

Structure (SMILES) | IC50
COc1cc2ncnc(Nc3ccc(F)c(Cl)c3)c2cc1OCC(=O)NO [Compound 1, 2-(4-(3-Chloro-4-fluorophenylamino)-7-methoxyquinazolin-6-yloxy)-N-hydroxyacetamide] | > 10 µM
COc1cc2ncnc(Nc3ccc(F)c(Cl)c3)c2cc1OCCC(=O)NO [Compound 2] | > 10 µM
COc1cc2ncnc(Nc3ccc(F)c(Cl)c3)c2cc1OCCCC(=O)NO [Compound 3, 4-(4-(3-Chloro-4-fluorophenylamino)-7-methoxyquinazolin-6-yloxy)-N-hydroxybutanamide] | > 10 µM
COc1cc2ncnc(Nc3ccc(F)c(Cl)c3)c2cc1OCCCCC(=O)NO [Compound 4] | 0.1 to 1 µM
COc1cc2ncnc(Nc3ccc(F)c(Cl)c3)c2cc1OCCCCCC(=O)NO [Compound 5] | < 0.1 µM
C#Cc1cccc(Nc2ncnc3cc(OC)c(OCCC(=O)NO)cc23)c1 [Compound 8] | > 10 µM
C#Cc1cccc(Nc2ncnc3cc(OC)c(OCCCC(=O)NO)cc23)c1 [Compound 9, 4-(4-(3-ethynylphenylamino)-7-methoxyquinazolin-6-yloxy)-N-hydroxybutanamide] | 0.1 to 1 µM
C#Cc1cccc(Nc2ncnc3cc(OC)c(OCCCCC(=O)NO)cc23)c1 [Compound 10, 5-(4-(3-Ethynylphenylamino)-7-methoxyquinazolin-6-yloxy)-N-hydroxypentanamide] | 0.1 to 1 µM
O=C(COc1ccc2ncnc(Nc3ccc(F)c(Cl)c3)c2c1)NO [Compound 13, 2-(4-(3-chloro-4-fluorophenylamino)quinazolin-6-yloxy)-N-hydroxyacetamide] | > 10 µM
O=C(CCOc1ccc2ncnc(Nc3ccc(F)c(Cl)c3)c2c1)NO [Compound 14] | 1 to 10 µM
O=C(CCCCCOc1ccc2ncnc(Nc3ccc(F)c(Cl)c3)c2c1)NO [Compound 17, 6-(4-(3-Chloro-4-fluorophenylamino)quinazolin-6-yloxy)-N-hydroxyhexanamide] | < 0.1 µM
C#Cc1cccc(Nc2ncnc3ccc(OCCCCC(=O)NO)cc23)c1 [Compound 22] | < 0.1 µM
C#Cc1cccc(Nc2ncnc3ccc(OCCCCCCC(=O)NO)cc23)c1 [Compound 24, 7-(4-(3-ethynylphenylamino)quinazolin-6-yloxy)-N-hydroxyheptanamide] | < 0.1 µM
C#Cc1cccc(Nc2ncnc3cc(OCCOC)c(OCCCCCCC(=O)NO)cc23)c1 [Compound 36, 7-(4-(3-Ethynylphenylamino)-7-(2-methoxyethoxy)quinazolin-6-yloxy)-N-hydroxyheptanamide] | < 0.1 µM
COc1cc2ncnc(Nc3ccc(F)c(Cl)c3)c2cc1NC(=O)CCCC(=O)NO [Compound 38, N^1-(4-(3-chloro-4-fluorophenylamino)-7-methoxyquinazolin-6-yl)-N^5-hydroxyglutaramide] | 1 to 10 µM
C#Cc1cccc(Nc2ncnc3cc(OC)c(NC(=O)CCCC(=O)NO)cc23)c1 [Compound 42, N^1-(4-(3-ethynylphenylamino)-7-methoxyquinazolin-6-yl)-N^5-hydroxyglutaramide] | 0.1 to 1 µM
C#Cc1cccc(Nc2ncnc3cc(OC)c(NC(=O)CCCCC(=O)NO)cc23)c1 [Compound 43, N^1-(4-(3-ethynylphenylamino)-7-methoxyquinazolin-6-yl)-N^6-hydroxyadipamide] | 0.1 to 1 µM
Nc1cc(Br)ccc1NC(=O)COc1ccc2ncnc(Nc3ccc(F)c(Cl)c3)c2c1 [Compound 45] | > 10 µM
C[C@@H](Nc1ncnc2ccc(OCCCCCC(=O)NO)cc12)c1ccccc1 [Compound 50] | 0.1 to 1 µM
O=C(/C=C/c1ccc(OCCOc2ccc3ncnc(Nc4ccc(F)c(Cl)c4)c3c2)cc1)NO [Compound 63] | 0.1 to 1 µM
COc1cc2ncnc(Nc3ccc(F)c(Cl)c3)c2cc1OCCOc1ccc(/C=C/C(=O)NO)cc1 [Compound 66, (E)-3-(4-(2-(4-(3-chloro-4-fluorophenylamino)-7-methoxyquinazolin-6-yloxy)ethoxy)phenyl)-N-hydroxyacrylamide] | 0.1 to 1 µM
